Reference: publication PMC6005030, “The c-Abl inhibitor, Radotinib HCl, is neuroprotective in a preclinical Parkinson’s disease mouse model” (Human Molecular Genetics, 2018)
Structures can show the parent of a compound that is named as a salt.

Experiments:
[1] = tested on: α-synuclein PFF mouse model of sporadic PD; assay: α-synuclein PFF mouse model: LB/LN-like pathology in vivo; parameters: species or system C57BL/6 mice; details: for Accumulation of pS129-α-synuclein in SNpc TH-positive neurons: oral once a day for 5 months, 180 days after PFF
Experimental: For Triton X-100 (TX, Sigma-Aldrich) soluble and insoluble fraction, cells were prepared with sequential lysis buffer. Samples were homogenized in the followed TX-soluble buffer (50 mM Tris (pH 8.0), 150 mM NaCl, 1% TX with phosphatase inhibitor cocktail and protease inhibitor cocktail) and then were centrifuged and collected the soluble supernatant. The insoluble pellet was resuspended in TX-insoluble buffer (50 mM Tris (pH 8.0), 150 mM NaCl, 1% TX, 2% SDS with phosphatase inhibitor cocktail and protease inhibitor cocktail) and then was sonicated and centrifuged at 22 000 × g for 30 min.
Protein concentrations were determined using the BCA assay (Pierce, Rockford, IL, USA). 2X Laemmli buffer (Bio-Rad) was utilized to dilute the lysates. […] Membrane was blocked with TTBS (150 mM NaCl, 10 mM Tris–HCl (pH 7.4), 0.05% Tween 20) containing 5% skim milk for 30–60 min and incubated at 4°C overnight with primary antibodies; mouse anti-α-synuclein (610787; BD Transduction Laboratories), rabbit anti-pY245 c-Abl (2861; Cell Signaling Technology), mouse anti-c-Abl (554148; BD Transduction Laboratories), rabbit monoclonal anti-pS129 α-synuclein (ab168381; Abcam), rabbit polyclonal anti-phospho-p38 MAPK (Thr180/Tyr182) (9211; Cell Signaling Technology), rabbit polyclonal anti-p38 MAPK (A11340; Abclonal Technology) followed by HRP-conjugated rabbit or mouse secondary antibodies (1: 5000, GE Healthcare) for 1 h at room temperature. Rabbit polyclonal anti-pY39-α-synuclein antibody was generated as described previously ([13]). Protein bands were detected using chemiluminescence detection system onto X-ray film. The membranes were reprobed with HRP-conjugated β-actin antibody (1: 20 000, Sigma-Aldrich).
(§1) Primary mouse cortical neurons were plated onto poly-D-lysine coated coverslips. 4% paraformaldehyde was used to fix the neurons, followed by blocking in a solution with 5% normal donkey serum (Jackson ImmunoResearch), 2% BSA (Sigma-Aldrich) and 0.1% TX (Sigma-Aldrich) for 30–60 min at room temperature. Floating brain tissue sections were blocked with 10% donkey serum (Jackson Immunoreserach) in PBS plus 0.2% TX for 30 min at room temperature.
Primary antibodies, anti-pS129-α-synuclein (ab168381; Abcam), anti-TH antibody (Novus Biologicals) and anti-MAP2 (MAB3418; Millipore) were incubated at 4°C overnight. The samples were washed with PBS three times, followed by 1 h of incubation with a mixture of FITC-conjugated (Jackson ImmunoReserach) and Cy3-conjugated (Jackson ImmunoReserach) secondary antibodies at room temperature. […]
(§2) For stereotaxic injection of α-synuclein PFF, 2 months old mice were anesthetized with the mixture of xylazene and ketamine. […] The head skin was closed by suturing and wound healing and recovery were monitored following surgery. […]

[2] = tested on: α-synuclein PFF mouse model of sporadic PD; assay: α-synuclein PFF mouse model: dopaminergic neurodegeneration and striatal TH fiber density; format: in vivo, C57BL/6 mice; details: for SNpc TH- and Nissl-positive dopaminergic neurons (stereologic counting): 180 days after PFF
Experimental: (§3) For stereotaxic injection of α-synuclein PFF, 2 months old mice were anesthetized with the mixture of xylazene and ketamine. An injection cannula (26.5 gauge) was applied stereotaxically into the striatum (anteroposterior, […]; dorsoventral, 2.6 mm) unilaterally into the right hemisphere. The infusion of 2 μl α-synuclein PFF (2.5 μg/μl in PBS) or PBS was performed at a rate of 0.4 μl per min. The head skin was closed by suturing and wound healing and recovery were monitored following surgery. For stereological analysis, animals were perfused and fixed intracardially with ice-cold PBS followed by 4% paraformaldehyde at 6 months after striatal α-synuclein PFF injections. The brain was removed and processed for immunohistochemistry or immunofluorescence. Behavioral test was performed at 6 months after the unilateral striatal α-synuclein PFF injections. Treatment of Radotinib HCl was accomplished after 1 month of striatal α-synuclein PFF injections, once a day.
The perfusion was performed with ice-cold PBS and fixed by 4% paraformaldehyde after deep anesthesia. Whole brains were collected, and fixed in the 4% paraformaldehyde, and incubated in cryoprotection solution (30% sucrose/PBS, pH 7.4). Brains were frozen in an optimal cutting temperature (OCT) solution and serial coronal sections (30 µm sections) were cut with a microtome. […] TH-positive and Nissl-positive dopaminergic neurons from the SNpc region were counted through optical fractionators, the unbiased method for cell counting. […] The total number of TH-stained neurons and Nissl counts was analyzed as previously described ([27],[43]). Fiber density in the striatum was analyzed by optical density (OD) measurement. […] The number of pS129-α-synuclein positive and Nissl positive in the SNpc region were measured with ImageJ software and field counting. […] The number and immunoreactivities of microglia and astrocyte in the SNpc region were measured with ImageJ software.

[3] = tested on: α-synuclein PFF mouse model of sporadic PD; assay: α-synuclein PFF mouse model: neuroinflammation (Iba-1, GFAP) in SNpc; format: in vivo, C57BL/6 mice
Experimental: as §3
The perfusion was performed with ice-cold PBS and fixed by 4% paraformaldehyde after deep anesthesia. Whole brains were collected, and fixed in the 4% paraformaldehyde, and incubated in cryoprotection solution (30% sucrose/PBS, pH 7.4). Brains were frozen in an optimal cutting temperature (OCT) solution and serial coronal sections (30 µm sections) were cut with a microtome. Free-floating sections were blocked with 5% goat or horse serum/PBS plus 0.2% Triton X-100 and incubated with anti-TH antibody (Novus Biologicals) or anti-pS129-α-synuclein followed by incubation with biotin-conjugated anti-rabbit antibody or anti-mouse antibody (Vector Labs). After washing three times, ABC reagents (Vector Labs) were added and sections were developed using SigmaFast 3, 3′-Diaminobenzidine (DAB) Peroxidase Substrate (Sigma-Aldrich). Sections were counterstained with Nissl (0.09% thionin). TH-positive and Nissl-positive dopaminergic neurons from the SNpc region were counted through optical fractionators, the unbiased method for cell counting. This method was carried out by using a computer-assisted image analysis system consisting of an Axiophot photomicroscope (Carl Zeiss Vision) equipped with a computer-controlled motorized stage (Ludl Electronics), a Hitachi HV C20 camera and Stereo Investigator software (MicroBright-Field). The total number of TH-stained neurons and Nissl counts was analyzed as previously described ([27],[43]). Fiber density in the striatum was analyzed by optical density (OD) measurement. […] The number of pS129-α-synuclein positive and Nissl positive in the SNpc region were measured with ImageJ software and field counting. […] The number and immunoreactivities of microglia and astrocyte in the SNpc region were measured with ImageJ software.

[4] = tested on: α-synuclein PFF mouse model of sporadic PD; assay: α-synuclein PFF mouse model: behavioral tests (pole, grip strength, amphetamine rotation); format: in vivo, C57BL/6 mice
Experimental: as §3
Before the actual test, mice were trained for three consecutive days and each training session consists of three test trials. Briefly, the mice were placed on the top of the pole (3 in. from the top of the pole) and then total time to reach the bottom of the pole was recorded. For the test, mice went through three sessions and the total time was recorded. Results were recorded by turn down, climb down, and total time (in seconds).
Neuromuscular strength was measured by maximum holding force generated by the mice. Mice were allowed to grasp a metal grid with their forelimbs. The tail was gently pulled and the maximum holding force recorded by the force transducer (Biosed, USA) when the mice released their grasp on the grid.
The amphetamine treatment (5 mg/kg, Sigma-Aldrich) was intraperitoneally administered after 6 months of α-synuclein PFF injections with or without Radotinib HCl treatment. Mice were placed in individual white bowls with a diameter of 20 cm and allowed to habituate to their environment for 10 min before turns contralateral and ipsilateral to the lesion were recorded over 20 min. Full-body ipsilateral rotations (clockwise) per 1 min session were recorded for each mouse from the video recordings.

BCR-Abl = details: cited from earlier work
c-Abl [5] = assay: α-synuclein PFF-induced c-Abl activation in primary cortical neurons (Western blot); format: cell-based, C57BL/6 mice; details: 1 μM
Experimental: (§4) C57BL/6 mice were obtained from the Charles River (Wilmington, MA). Primary cortical neurons were prepared from E15.5 pups and cultured in Neurobasal media supplemented with B-27, 0.5 mM L-glutamine, penicillin and streptomycin (Invitrogen, Grand Island, NY) on 24-well tissue culture plates coated with poly-D-lysine. Radotinib HCl was added to neurons for 30 min and α-synuclein PFF (final concentration 1 μg/ml) was further incubated as described (10 or 14 days) followed by Immunocytochemistry and biochemical or toxicity assays. Radotinib HCl was added to neurons three times a week before the assays.
After washing two times with PBS, primary cortical neurons were harvested and then lysed with RIPA lysis buffer (Thermo Scientific) with phosphatase inhibitor cocktail (Sigma-Aldrich) and complete protease inhibitor mixture (Roche) for 30 min in ice. The lysate is then homogenized and centrifuged at 22 000 × g for 30 min.
(§5) Protein concentrations were determined using the BCA assay (Pierce, Rockford, IL, USA). 2X Laemmli buffer (Bio-Rad) was utilized to dilute the lysates. […] Protein bands were detected using chemiluminescence detection system onto X-ray film. […]

primary cortical neurons [6] = assay: α-synuclein PFF-induced LB/LN-like pathology in primary cortical neurons (pS129-α-synuclein immunostaining); format: cell-based, C57BL/6 mice; details: 50 nM, 250 nM and 1 μM, dose-dependent; 10 days
Experimental: as §4, §1
Primary antibodies, anti-pS129-α-synuclein (ab168381; Abcam), anti-TH antibody (Novus Biologicals) and anti-MAP2 (MAB3418; Millipore) were incubated at 4°C overnight. […]

primary cortical neurons [7] = assay: Oxygen consumption rate (Seahorse XF24) in α-synuclein PFF-treated primary cortical neurons; format: cell-based, mouse; details: 1 μM, 14 days
Experimental: OCR was determined using the Seahorse XF24 Extracellular Flux Analyzer and the XF Cell Mito Stress Test Kit according to the manufacturer’s instruction (Agilent Technologies, Santa Clara, CA) ([42]). Briefly, primary mouse cortical neurons were plated in a XF24 cell culture microplate coated with poly-D-lysine. Cells were washed once with XF Assay Media, pre-incubated in a non-CO2 incubator at 37°C for 30 min in XF Assay Media. For the assay, cells were treated sequentially with 1 μM Oligomycin, 2 μM carbonyl cyanide-p-trifluoromethoxyphenylhydrazone (FCCP), and 1 μM Rotenone plus 1 μM Antimycin A. Oligomycin inhibits ATP synthase (complex V) to measure ATP production and proton leak. FCCP uncouples oxygen consumption from ATP production enables to measure maximal respiration. Rotenone and antimycin A inhibit complexes I and III and shut down mitochondrial respiration. Basal respiration was calculated using the mean of the OCR measurements before oligomycin injection minus the mean of the OCR measurements after rotenone and antimycin A injection, and maximal respiration was defined as the difference between the mean of the OCR measurements after FCCP injection and the mean of the OCR measurements after rotenone and antimycin A injection.

primary cortical neurons [8] = assay: α-synuclein PFF-induced neuronal toxicity (TUNEL, Alamar Blue); format: cell-based, C57BL/6 mice; details: α-synuclein PFF 14 days; 50, 250, 1000 nM
Experimental: as §4
Cell viability was tested via two methods; In Situ Cell Death Detection Kit (Roche) for TUNEL assay and Alamar Blue assay (Thermo Fisher). […] Cell death was assessed through the TUNEL assay, according to the manufacturer’s protocol. For Alamar Blue assay, after adding Alamar Blue solution for 4 h, cell viability was determined by fluorescence at excitation wavelength 570 nm and emission wavelength 585 nm.

c-Abl [9] = assay: α-synuclein PFF mouse model: c-Abl activation and p38 MAPK phosphorylation in brain (Western blot); format: in vivo, C57BL/6 mice
Experimental: The mouse brain tissues were homogenized and prepared in lysis buffer (10 mM Tris–HCL, pH 7.4, 150 mM NaCl, 5 mM EDTA, 0.5% Nonidet P-40, 10 mM Na-β-glycerophosphate, phosphatase inhibitor cocktail (Sigma-Aldrich) and complete protease inhibitor mixture (Roche)), using a Diax 900 homogenizer (Sigma-Aldrich). After homogenization, samples were rotated at 4°C for 30 min for complete lysis, the homogenate was centrifuged at 22 000 × g for 30 min and the supernatants were collected.
as §5, §2

[10] = mid (10 mg/kg) and high (30 mg/kg) doses oral
[11] = low (3), mid (10) and high (30 mg/kg) doses oral, 6 months after PFF

Cc1cn(-c2cc(NC(=O)c3ccc(C)c(Nc4nccc(-c5cccnc5)n4)c3)cc(C(F)(F)F)c2)cn1 [Nilotinib]
Reduction of TX-insoluble α-synuclein aggregate species, pS129- and pY39-α-synuclein compared to Radotinib HCl ([1]; high dose (30 mg/kg) oral): less effect
Accumulation of pS129-α-synuclein in SNpc TH-positive neurons ([1]; high dose (30 mg/kg)): significantly decreased
SNpc TH- and Nissl-positive dopaminergic neurons (stereologic counting) ([2]; high dose (30 mg/kg) oral): dramatic preservation
Astrocyte activation (GFAP) in SNpc ([3]; high dose (30 mg/kg) oral): significantly decreased
Iba-1 immunoreactivity and microglial density in SNpc ([3]; high dose (30 mg/kg) oral): significantly reduced
Behavioral deficits in the α-synuclein PFF mouse model ([4]; high dose (30 mg/kg) oral): protected against the behavioral deficits

Cc1cn(-c2cc(NC(=O)c3ccc(C)c(Nc4nccc(-c5cnccn5)n4)c3)cc(C(F)(F)F)c2)cn1 [Radotinib HCl]
c-Abl activation induced by α-synuclein PFF (pY245-c-Abl) (c-Abl [5]; α-synuclein PFF 1 μg/ml, primary cortical neurons): significantly decreased
Level of pY39-α-synuclein (c-Abl [5]; α-synuclein PFF-treated primary cortical neurons): significantly decreased
LB/LN-like pathology induced by α-synuclein PFF (pS129-α-synuclein immunostaining) (primary cortical neurons [6]): significantly decreased
Basal respiration rate (BRR) (primary cortical neurons [7]): markedly restored
Maximal respiration rate (MRR) (primary cortical neurons [7]): markedly restored
α-synuclein PFF neuronal toxicity, Alamar blue assay (primary cortical neurons [8]): significantly attenuated
α-synuclein PFF neuronal toxicity, TUNEL staining (primary cortical neurons [8]): significantly attenuated
TX-insoluble α-synuclein aggregates species, pS129-α-synuclein and pY39-α-synuclein levels in ventral midbrain ([1]; 3, 10, 30 mg/kg oral, dose-dependent): significantly reduced
Accumulation of pS129-α-synuclein in SNpc TH-positive neurons ([1]; mid (10 mg/kg) and high (30 mg/kg) doses): significantly decreased
α-synuclein PFF-induced reduction in striatal TH-fiber density ([2]; low (3), mid (10) and high (30 mg/kg) doses oral): significantly rescued
SNpc TH- and Nissl-positive dopaminergic neurons (stereologic counting) [2, 10]: dramatic preservation
Astrocyte activation (GFAP) in SNpc [3, 10]: significantly decreased
Iba-1 immunoreactivity and microglial density in SNpc [3, 10]: significantly reduced
Grip strength (neuromuscular strength reduced by α-synuclein PFF) [4, 11]: restored
Pole test latency induced by α-synuclein PFF [4, 11]: significantly restored
Amphetamine-induced full body ipsilateral rotations ([4]; mid (10 mg/kg) and high (30 mg/kg) doses oral, amphetamine 5 mg/kg I.P.): reduced
Increase in phosphorylation of c-Abl (Y245) and of p38 MAPK in α-synuclein PFF-injected mice (c-Abl [9]; Supplementary Fig. S1): reversed
c-Abl activation, TX-insoluble α-synuclein aggregates, phosphorylation of Y39-α-synuclein and p38 MAPK, compared to Nilotinib-treated mice (c-Abl [9]; α-synuclein PFF-injected mice): substantially decreased
IC50 (BCR-Abl): 34 nM
